In patent publication US20130109734A1 (Metabolex, Inc., priority 2010, published 2013):

Target: T1, human GPR120 (Homo sapiens, UniProt Q5NUL3)
T1 construct: host or cells: HEK293 cells co-expressing Gqi5
T1 sequence (Q5NUL3 1-361): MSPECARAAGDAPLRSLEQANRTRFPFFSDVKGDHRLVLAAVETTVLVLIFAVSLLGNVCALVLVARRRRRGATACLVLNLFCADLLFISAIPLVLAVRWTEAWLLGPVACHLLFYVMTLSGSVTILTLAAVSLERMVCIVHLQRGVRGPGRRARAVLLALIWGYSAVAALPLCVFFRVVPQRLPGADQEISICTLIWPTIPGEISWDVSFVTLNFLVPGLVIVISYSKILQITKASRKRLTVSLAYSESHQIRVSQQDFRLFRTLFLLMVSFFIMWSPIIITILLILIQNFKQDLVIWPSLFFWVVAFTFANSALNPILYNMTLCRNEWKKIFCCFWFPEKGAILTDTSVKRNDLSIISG
Assay: Intracellular Ca2+ assay in human GPR120 stable cell line (HEK293 co-expressing Gqi5), Flexstation
Format: cell-based
Conditions: % activity at 5 μM compared to the maximal activity of GW9508 at 6.7 μM (=100%); human GPR120 cells, Ca2+ fluorescence
Procedure, shortened: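 HEK293 cells stably co-expressing Gqi5 and Flag-tagged human GPR120, loaded with Calcium 4 dye in HBSS/HEPES pH 7.4 at 37 °C; compounds at eight concentrations, 0.00001–20 μM, fluorescence (485/525 nm) read 90 s. EC50 from Max−Min change; percent activity relative to GW9508 maximum at 6.7 μM.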

SMILES	% Activity (GW9508 Reference Compound) [%]
COc1cccc(-c2cc(COc3ccc(CC(C)C(=O)O)cc3)c3c(c2)CC(C)(C)O3)c1 (stereo not shown) [Example 86, 3-(4-((5-(3-methoxyphenyl)-2,2-dimethyl-2,3-dihydrobenzofuran-7-yl)methoxy)phenyl)-2-methylpropanoic acid]	5.23
CC(Cc1ccc(OCc2cc(Cl)cc3c2OC(C)(C)C3)c(CN(C)C)c1)C(=O)O (stereo not shown) [Example 88, 3-(4-((5-chloro-2,2-dimethyl-2,3-dihydrobenzofuran-7-yl)methoxy)-3-((dimethylamino)methyl)phenyl)-2-methylpropanoic acid]	118.92
CCN(CC)c1cc(COc2ccc(CC(C)C(=O)O)cc2)c2c(c1)CC(C)(C)O2 (stereo not shown) [Example 89, 3-(4-((5-(diethylamino)-2,2-dimethyl-2,3-dihydrobenzofuran-7-yl)methoxy)phenyl)-2-methylpropanoic acid]	82.28
CC(Cc1ccc(OCc2cc(-n3cnnn3)cc3c2OC(C)(C)C3)cc1)C(=O)O (stereo not shown) [Example 90, 3-(4-((2,2-dimethyl-5-(1H-tetrazol-1-yl)-2,3-dihydrobenzofuran-7-yl)methoxy)phenyl)-2-methylpropanoic acid]	75.86
CC(Cc1ccc(OCc2ccc(F)c3c2CC(C)(C)O3)cc1)C(=O)O (stereo not shown) [Example 91, 3-(4-((7-fluoro-2,2-dimethyl-2,3-dihydrobenzofuran-4-yl)methoxy)phenyl)-2-methylpropanoic acid]	121.29
CC1(C)Cc2c(COc3ccc4c(c3)CCC4CC(=O)O)ccc(F)c2O1 (stereo not shown) [Example 94, 2-(5-((7-fluoro-2,2-dimethyl-2,3-dihydrobenzofuran-4-yl)methoxy)-2,3-dihydro-1H-inden-1-yl)acetic acid]	98.45
CC(Cc1ccc(OCc2c(F)ccc3c2CC(C)(C)O3)cc1)C(=O)O (stereo not shown) [Example 96, 3-(4-((5-fluoro-2,2-dimethyl-2,3-dihydrobenzofuran-4-yl)methoxy)phenyl)-2-methylpropanoic acid]	124.82
CC1(C)Cc2c(ccc(F)c2COc2c(F)cc(C3CC3C(=O)O)cc2F)O1 (stereo not shown) [Example 99, 2-(3,5-difluoro-4-((5-fluoro-2,2-dimethyl-2,3-dihydrobenzofuran-4-yl)methoxy)phenyl)cyclopropanecarboxylic acid]	101.53
Cc1cc(OCC(=O)O)ccc1OCc1cc(Cl)cc2c1OC(C)(C)C2 [Example 103, 2-(4-((5-chloro-2,2-dimethyl-2,3-dihydrobenzofuran-7-yl)methoxy)-3-methylphenoxy)acetic acid]	98.96
CC(CC(=O)O)c1cc(F)c(OCc2cc(Cl)cc3c2OC(C)(C)C3)c(F)c1 (stereo not shown) [Example 106, 3-(4-((5-chloro-2,2-dimethyl-2,3-dihydrobenzofuran-7-yl)methoxy)-3,5-difluorophenyl)butanoic acid]	154.51
COc1cc(COc2ccc(CC(C)C(=O)O)cc2)c2c(c1)CC(C)(C)O2 (stereo not shown) [Example 108, 3-(4-((5-methoxy-2,2-dimethyl-2,3-dihydrobenzofuran-7-yl)methoxy)phenyl)-2-methylpropanoic acid]	143.85
CC(Cc1cc(F)c(OCc2cc(Cl)cc3c2OC(C)C3(C)C)c(F)c1)C(=O)O (stereo not shown) [Example 109, 3-(4-((5-chloro-2,3,3-trimethyl-2,3-dihydrobenzofuran-7-yl)methoxy)-3,5-difluorophenyl)-2-methylpropanoic acid]	72.36
CC(Cc1cc(F)c(OCc2cc(OCc3ccccc3)cc3c2OC(C)(C)C3)c(F)c1)C(=O)O (stereo not shown) [Example 111, 3-(4-((5-(benzyloxy)-2,2-dimethyl-2,3-dihydrobenzofuran-7-yl)methoxy)-3,5-difluorophenyl)-2-methylpropanoic acid]	51.55
CC1(C)Cc2cc(Cl)cc(COc3ccc4c(c3)CC(C(=O)O)C4)c2O1 (stereo not shown) [Example 112, 5-((5-chloro-2,2-dimethyl-2,3-dihydrobenzofuran-7-yl)methoxy)-2,3-dihydro-1H-indene-2-carboxylic acid]	115.42
CC1(C)Cc2cc(F)cc(COc3ccc4cc(C(=O)O)ccc4c3)c2O1 [Example 114, 6-((5-fluoro-2,2-dimethyl-2,3-dihydrobenzofuran-7-yl)methoxy)-2-naphthoic acid]	123.58
CC(C)Oc1cc(OCc2cc(F)cc3c2OC(C)(C)C3)ccc1CCC(=O)O [Example 115, 3-(4-((5-fluoro-2,2-dimethyl-2,3-dihydrobenzofuran-7-yl)methoxy)-2-isopropoxyphenyl)propanoic acid]	151.78

SMILES	% Activity (GW9508 Reference Compound) [%]
CC(C)Oc1cc(OCc2cc(Cl)cc3c2OC(C)(C)C3)ccc1CCC(=O)O [Example 116, 3-(4-((5-chloro-2,2-dimethyl-2,3-dihydrobenzofuran-7-yl)methoxy)-2-isopropoxyphenyl)propanoic acid]	145.6
Cc1cc2cc(Cl)cc(COc3ccc(CC(C)C(=O)O)cc3F)c2o1 (stereo not shown) [Example 120, 3-(4-((5-chloro-2-methylbenzofuran-7-yl)methoxy)-3-fluorophenyl)-2-methylpropanoic acid]	104.49
CN(C)Cc1cc(OCc2cc(F)cc3c2OC(C)(C)C3)ccc1CCC(=O)O [Example 122, 3-(2-((dimethylamino)methyl)-4-((5-fluoro-2,2-dimethyl-2,3-dihydrobenzofuran-7-yl)methoxy)phenyl)propanoic acid]	3.58
CC(=O)Nc1cc(COc2ccc(CC(C)C(=O)O)cc2)c2c(c1)CC(C)(C)O2 (stereo not shown) [Example 123, 3-(4-((5-acetamido-2,2-dimethyl-2,3-dihydrobenzofuran-7-yl)methoxy)phenyl)-2-methylpropanoic acid]	47.01
CC(Cc1ccc(OCc2cc(OC(F)(F)F)cc3c2OC(C)(C)C3)cc1)C(=O)O (stereo not shown) [Example 124, 3-(4-((2,2-dimethyl-5-(trifluoromethoxy)-2,3-dihydrobenzofuran-7-yl)methoxy)phenyl)-2-methylpropanoic acid]	131.64
Cc1cc2c(OCc3cc(F)cc4c3OC(C)(C)C4)ccc(CCC(=O)O)c2o1 [Example 125, 3-(4-((5-fluoro-2,2-dimethyl-2,3-dihydrobenzofuran-7-yl)methoxy)-2-methylbenzofuran-7-yl)propanoic acid]	32.57
CC(=O)NCCOC(=O)C(C)Cc1ccc(OCc2cc(Cl)cc3c2OC(C)(C)C3)c(C(F)(F)F)c1 (stereo not shown) [Example 126, 2-acetamidoethyl 3-(4-((5-chloro-2,2-dimethyl-2,3-dihydrobenzofuran-7-yl)methoxy)-3-(trifluoromethyl)phenyl)-2-methylpropanoate]	47.02
CC1(C)Cc2cc(Cl)cc(CNc3ccc(CCC(=O)O)cc3)c2O1 [Example 127, 3-(4-(((5-chloro-2,2-dimethyl-2,3-dihydrobenzofuran-7-yl)methyl)amino)phenyl)propanoic acid]	152.93
CC(Cc1ccc(OCc2cc(Cl)cc3c2OC(C)(C)C3O)cc1)C(=O)O (stereo not shown) [Example 130, 3-(4-((5-chloro-3-hydroxy-2,2-dimethyl-2,3-dihydrobenzofuran-7-yl)methoxy)phenyl)-2-methylpropanoic acid]	103.85
CC1(C)Cc2cc(F)cc(COc3ccc(CC(=O)O)cc3)c2O1 [Example 133, 2-(4-((5-fluoro-2,2-dimethyl-2,3-dihydrobenzofuran-7-yl)methoxy)phenyl)acetic acid]	103.4
CCc1cc(OCc2cc(F)cc3c2OC(C)(C)C3)ccc1CCC(=O)O [Example 134, 3-(2-ethyl-4-((5-fluoro-2,2-dimethyl-2,3-dihydrobenzofuran-7-yl)methoxy)phenyl)propanoic acid]	151.44
CC1(C)Cc2cc(F)cc(COc3ccc(CCC(=O)O)c(OC(F)(F)F)c3)c2O1 [Example 136, 3-(4-((5-fluoro-2,2-dimethyl-2,3-dihydrobenzofuran-7-yl)methoxy)-2-(trifluoromethoxy)phenyl)propanoic acid]	140.51
CCc1cc(OCc2cccc3c2CC(C)(C)O3)ccc1CCC(=O)O [Example 140, 3-(4-((2,2-dimethyl-2,3-dihydrobenzofuran-4-yl)methoxy)-2-ethylphenyl)propanoic acid]	146.18
C[C@H](Cc1ccc(OCc2cc(Cl)cc3c2OC(C)(C)C3)c(F)c1)C(=O)O [Example 141, (R)-3-(4-((5-chloro-2,2-dimethyl-2,3-dihydrobenzofuran-7-yl)methoxy)-3-fluorophenyl)-2-methylpropanoic acid]	143.3
C[C@H](Cc1ccc(OCc2cc(Cl)cc3c2OC(C)(C)C3)c(C(F)(F)F)c1)C(=O)O [Example 143, (R)-3-(4-((5-chloro-2,2-dimethyl-2,3-dihydrobenzofuran-7-yl)methoxy)-3-(trifluoromethyl)phenyl)-2-methylpropanoic acid]	90.56
